Measured values as given in patent US12662489B2 (Sitryx Therapeutics Limited, priority 2023, dated 2026).

Key:
CD4+ T-cells = details: cited from earlier work
[1] = tested on: murine KLH contact sensitization model; details: cited from earlier work
[2] = target: T1, human α4β2 neuronal nicotinic receptor (Homo sapiens, UniProt P17787+P43681); experiment: α4β2 neuronal nicotinic receptor assay (agonist radioligand, [3H]cytisine); assay type: binding; details: transfected SH-SY5Y cell membranes, 0.6 nM [3H]cytisine, band
T1 construct: host or cells: SH-SY5Y cells (membrane homogenates)
Description: Cell membrane homogenates (30 μg protein) were incubated for 120 min at 4° C. with 0.6 nM [3H]cytisine in the absence or presence of the test compound in a buffer containing 50 mM Tris-HCl (pH 7.4), 120 mM NaCl, 5 mM KCl, 2.5 mM CaCl2 and 1 mM MgCl2. Nonspecific binding was determined in the presence of 10 μM nicotine bitartrate. Following incubation, the samples were filtered rapidly under vacuum through glass fiber filters (GF/B, Packard) presoaked with 0.3% PEI and rinsed several times with ice-cold 50 mM Tris-HCl using a 96-sample cell harvester (Unifilter, Packard).
The filters were dried then counted for radioactivity in a scintillation counter (Topcount, Packard) using a scintillation cocktail (Microscint 0, Packard). The results were expressed as a percent inhibition of the control radioligand specific binding. The standard reference compound was nicotine bitartrate.
A number of example compounds of formula (I) were tested to evaluate their affinity for the human α4β2 neuronal nicotinic receptor expressed in transfected SH-SY5Y cells, determined in a radioligand binding assay.

[3] = target: T2, MTHFD2 recombinant human enzyme (Homo sapiens, UniProt P13995); experiment: MTHFD2 inhibition assay (NAD(P)H-Glo luminescence); details: for MTHFD1/MTHFD2 IC50 ratio: selectivity of MTHFD2 inhibition over MTHFD1, band
T2 sequence (P13995 36-350): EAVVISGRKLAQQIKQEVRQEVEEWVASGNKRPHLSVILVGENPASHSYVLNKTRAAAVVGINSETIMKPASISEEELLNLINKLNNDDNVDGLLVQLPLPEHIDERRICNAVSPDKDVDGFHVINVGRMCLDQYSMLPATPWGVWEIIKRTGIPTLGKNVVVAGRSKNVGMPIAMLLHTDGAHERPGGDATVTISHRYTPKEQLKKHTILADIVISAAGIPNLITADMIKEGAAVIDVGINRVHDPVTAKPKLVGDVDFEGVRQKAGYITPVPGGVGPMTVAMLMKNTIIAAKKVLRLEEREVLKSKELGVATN

[4] = target: T3, MTHFD1 recombinant human enzyme (Homo sapiens, UniProt P11586); experiment: MTHFD1 inhibition assay (NAD(P)H-Glo luminescence); details: MTHFD1 IC50, recombinant human enzyme 200 nM, NADP, band
T3 sequence (P11586 2-291 limits assumed): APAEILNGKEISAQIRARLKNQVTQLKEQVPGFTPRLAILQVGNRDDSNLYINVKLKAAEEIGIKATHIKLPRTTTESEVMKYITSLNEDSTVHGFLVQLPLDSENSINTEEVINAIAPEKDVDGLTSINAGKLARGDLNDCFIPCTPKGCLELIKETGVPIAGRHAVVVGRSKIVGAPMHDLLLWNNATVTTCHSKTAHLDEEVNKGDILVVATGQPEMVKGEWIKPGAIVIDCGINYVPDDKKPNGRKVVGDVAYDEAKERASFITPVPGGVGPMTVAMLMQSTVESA

human CD4+ T cells = experiment: Human CD4+ T-cell proliferation assay (CFSE, CD3/28 beads); details: read-out: Proliferation IC50
murine EAE model = details: cited from earlier work

T1 sequence (P43681 29-627 limits assumed): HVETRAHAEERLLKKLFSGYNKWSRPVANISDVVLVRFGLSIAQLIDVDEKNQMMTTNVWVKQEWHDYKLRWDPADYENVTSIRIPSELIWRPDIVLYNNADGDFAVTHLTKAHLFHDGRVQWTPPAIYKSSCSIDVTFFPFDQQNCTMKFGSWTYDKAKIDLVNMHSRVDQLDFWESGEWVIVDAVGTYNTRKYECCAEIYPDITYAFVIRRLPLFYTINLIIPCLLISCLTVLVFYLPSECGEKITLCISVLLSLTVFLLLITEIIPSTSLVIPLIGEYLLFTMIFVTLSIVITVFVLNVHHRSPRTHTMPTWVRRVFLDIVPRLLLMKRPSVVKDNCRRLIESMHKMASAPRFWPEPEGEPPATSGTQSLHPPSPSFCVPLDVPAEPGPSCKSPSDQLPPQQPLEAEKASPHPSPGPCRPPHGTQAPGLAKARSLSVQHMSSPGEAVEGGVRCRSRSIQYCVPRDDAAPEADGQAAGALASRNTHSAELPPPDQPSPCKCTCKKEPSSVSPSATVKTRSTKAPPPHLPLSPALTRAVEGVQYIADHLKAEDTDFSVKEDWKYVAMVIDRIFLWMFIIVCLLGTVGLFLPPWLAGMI
T1 sequence (P17787 26-502): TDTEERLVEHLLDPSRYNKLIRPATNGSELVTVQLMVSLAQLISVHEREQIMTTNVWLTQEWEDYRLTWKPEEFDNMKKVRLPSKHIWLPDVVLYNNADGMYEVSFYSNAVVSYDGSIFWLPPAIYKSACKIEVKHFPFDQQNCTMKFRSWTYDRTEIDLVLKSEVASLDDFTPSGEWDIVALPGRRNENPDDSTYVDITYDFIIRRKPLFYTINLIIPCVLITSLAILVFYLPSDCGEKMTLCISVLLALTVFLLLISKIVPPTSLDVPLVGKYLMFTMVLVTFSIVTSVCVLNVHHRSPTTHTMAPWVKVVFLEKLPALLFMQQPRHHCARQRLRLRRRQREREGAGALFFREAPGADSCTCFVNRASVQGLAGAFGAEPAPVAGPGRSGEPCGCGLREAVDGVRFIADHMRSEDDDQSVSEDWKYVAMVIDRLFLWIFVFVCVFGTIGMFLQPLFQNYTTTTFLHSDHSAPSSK

IC50 [2] [nM]	IC50 [3] [nM]	MTHFD1/MTHFD2 IC50 ratio [3]	IC50 [4] [nM]	SMILES	number of Th1 and Th17 cells differentiated in vitro from CD4+ T-cells and expression of the respective Th1 and Th17 cytokines (CD4+ T-cells)	IFNγ and IL-17 (CD4+ T-cells; in vitro)	immune-suppressive Treg cells (CD4+ T-cells; in vitro)	tolerability at the therapeutic doses used ([1]; in vivo)	ear-swelling ([1]; murine KLH contact sensitization model)	IC50 (human CD4+ T cells) [nM]	tolerability at the therapeutic doses used (murine EAE model; in vivo)	disease severity and cumulative clinical score compared to vehicle (murine EAE model; mice, oral, day 4 to day 26)	immune cell infiltrate into the spinal cord (murine EAE model; mice, oral, day 4 to day 26)
20000 to 100000	1 to 10	J (>30)	100 to 1000	COC[C@H]1CN(c2cc(C)c3c4c(c(=O)oc3c2C)CN(C(=O)c2cc(N(C)C)c(C(=O)NS(=O)(=O)N3CCCC3)cc2F)CC4)CCN1C [Example 144, (R)-2-(dimethylamino)-5-fluoro-4-(8-(3-(methoxymethyl)-4-methylpiperazin-1-yl)-7,10-dimethyl-5-oxo-1,3,4,5-tetrahydro-2H-chromeno[3,4-c]pyridine-3-carbonyl)-N-(pyrrolidin-1-ylsulfonyl)benzamide]						1 to 10			
20000 to 100000	1 to 10	G (^ 3 to 9.0)	10 to 100	CCOc1c(C(=O)NS(=O)(=O)N2CCCC2)ccc(C(=O)N2CCc3c(c(=O)oc4c(C)c(N5CCN(C)[C@@H](COC)C5)cc(C)c34)C2)c1F [Example 147, (R)-2-ethoxy-3-fluoro-4-(8-(3-(methoxymethyl)-4-methylpiperazin-1-yl)-7,10-dimethyl-5-oxo-1,3,4,5-tetrahydro-2H-chromeno[3,4-c]pyridine-3-carbonyl)-N-(pyrrolidin-1-ylsulfonyl)benzamide]						1 to 10			
20000 to 100000	10 to 100	J (>30)	1000 to 5000	COC[C@H]1CN(c2cc(C)c3c4c(c(=O)oc3c2C)CN(C(=O)c2cc(N(C)C)c(C(=O)NS(=O)(=O)N3CCCC3)cc2Cl)CC4)CCN1C [Example 150, (R)-5-chloro-2-(dimethylamino)-4-(8-(3-(methoxymethyl)-4-methylpiperazin-1-yl)-7,10-dimethyl-5-oxo-1,3,4,5-tetrahydro-2H-chromeno[3,4-c]pyridine-3-carbonyl)-N-(pyrrolidin-1-ylsulfonyl)benzamide]						10 to 30			

More lines, now with the values behind:

SMILES	IC50 [2] [nM]	IC50 [3] [nM]	MTHFD1/MTHFD2 IC50 ratio [3]	IC50 [4] [nM]	number of Th1 and Th17 cells differentiated in vitro from CD4+ T-cells and expression of the respective Th1 and Th17 cytokines (CD4+ T-cells)	IFNγ and IL-17 (CD4+ T-cells; in vitro)	immune-suppressive Treg cells (CD4+ T-cells; in vitro)	tolerability at the therapeutic doses used ([1]; in vivo)	ear-swelling ([1]; murine KLH contact sensitization model)	IC50 (human CD4+ T cells) [nM]	tolerability at the therapeutic doses used (murine EAE model; in vivo)	disease severity and cumulative clinical score compared to vehicle (murine EAE model; mice, oral, day 4 to day 26)	immune cell infiltrate into the spinal cord (murine EAE model; mice, oral, day 4 to day 26)
Cc1c(N2CCN(C)[C@@H](C)C2)ccc2c3c(c(=O)oc12)CN(C(=O)c1ccc(NS(C)(=O)=O)c(OC(F)(F)F)c1)CC3 [DS18561882]					greatly decreased	significantly reduced	increased	well tolerated	could reduce ear-swelling				
COC[C@H]1CN(c2cc(C)c3c4c(c(=O)oc3c2C)CN(C(=O)c2ccc(C(=O)NS(=O)(=O)N3CCCC3)c(OC3CCC3)c2)CC4)CCN1C [Example 1, (R)-2-cyclobutoxy-4-(8-(3-(methoxymethyl)-4-methylpiperazin-1-yl)-7,10-dimethyl-5-oxo-1,3,4,5-tetrahydro-2H-chromeno[3,4-c]pyridine-3-carbonyl)-N-(pyrrolidin-1-ylsulfonyl)benzamide]	2000 to 20000	100 to 1000	F (<3)	100 to 1000						1 to 10			
Nc1nc2c(c(=O)[nH]1)N1C(=O)N(c3ccc(C(=O)N[C@@H](CCC(=O)O)C(=O)O)cc3)CC1CN2 (some centres unmarked) [LY345899]											well tolerated	significantly reduced	reduced
COC[C@H]1CN(c2cc(C)c3c4c(c(=O)oc3c2C)CN(C(=O)c2ccc(C(=O)NS(=O)(=O)N3CCCC3)cc2F)CC4)CCN1C [Example 175, (R)-3-fluoro-4-(8-(3-(methoxymethyl)-4-methylpiperazin-1-yl)-7,10-dimethyl-5-oxo-1,3,4,5-tetrahydro-2H-chromeno[3,4-c]pyridine-3-carbonyl)-N-(pyrrolidin-1-ylsulfonyl)benzamide]	20000 to 100000	10 to 100	J (>30)	1000 to 5000						1000 to 5000			
COC[C@H]1CN(c2cc(C)c3c4c(c(=O)oc3c2C)CN(C(=O)c2ccc(C(=O)NS(=O)(=O)N3CCCC3)c(OC3CCC3)c2F)CC4)CCN1C [Example 3, (R)-2-cyclobutoxy-3-fluoro-4-(8-(3-(methoxymethyl)-4-methylpiperazin-1-yl)-7,10-dimethyl-5-oxo-1,3,4,5-tetrahydro-2H-chromeno[3,4-c]pyridine-3-carbonyl)-N-(pyrrolidin-1-ylsulfonyl)benzamide]	20000 to 100000	10 to 100	F (<3)	10 to 100						1 to 10			
